In brackets after ≈: the same amount, converted by molar mass.
What was measured:
Type in all cases: functional
[1] = test system: Tetranychus urticae; assay: Toxicity against adult Tetranychus urticae HOL3 (two-spotted spider mite) harboring mitochondrial P262T Cytb heteroplasmic mutation in compound pretreated bean leaves assessed as mortality
[2] = test system: Tetranychus urticae; assay: Toxicity against adult Tetranychus urticae HOL2 (two-spotted spider mite) harboring mitochondrial G126S Cytb mutation in compound pretreated bean leaves assessed as mortality
[3] = test system: Tetranychus urticae; assay: Toxicity against adult Tetranychus urticae HOL1 (two-spotted spider mite) harboring mitochondrial G126S and I136T Cytb mutation in compound pretreated bean leaves assessed as mortality
[4] = test system: Tetranychus urticae; assay: Resistance ratio of LC50 for bifenazate-resistant Tetranychus urticae (two-spotted spider mite) BEL1 harboring mitochondrial P262T Cytb fixed mutation to LC50 for Tetranychus urticae GSS
[5] = test system: Tetranychus urticae; assay: Resistance ratio of LC50 for Tetranychus urticae (two-spotted spider mite) HOL4 harboring mitochondrial G126S Cytb mutation to LC50 for Tetranychus urticae GSS
[6] = test system: Tetranychus urticae; assay: Resistance ratio of LC50 for Tetranychus urticae HOL3 (two-spotted spider mite) harboring mitochondrial P262T Cytb heteroplasmic mutation to LC50 for Tetranychus urticae GSS
[7] = test system: Tetranychus urticae; assay: Resistance ratio of LC50 for Tetranychus urticae HOL2 (two-spotted spider mite) harboring mitochondrial G126S Cytb mutation to LC50 for Tetranychus urticae GSS
[8] = test system: Tetranychus urticae; assay: Resistance ratio of LC50 for Tetranychus urticae HOL1 (two-spotted spider mite) harboring mitochondrial G126S and I136T Cytb mutation to LC50 for Tetranychus urticae GSS
[9] = test system: Tetranychus urticae; assay: Resistance ratio of LC50 for bifenazate-resistant Tetranychus urticae BR-VL (two-spotted spider mite) harboring mitochondrial G126S, S141F and D161G Cytb mutation to LC50 for Tetranychus urticae GSS
[10] = test system: Tetranychus urticae; assay: Resistance ratio of LC50 for METI-resistant Tetranychus urticae MR-VP (two-spotted spider mite) to LC50 for Tetranychus urticae GSS
[11] = test system: Tetranychus urticae; assay: Resistance ratio of LC50 for Tetranychus urticae MR-VL (two-spotted spider mite) to LC50 for Tetranychus urticae GSS
[12] = test system: Tetranychus urticae; assay: Resistance ratio of LC50 for Tetranychus urticae WI (two-spotted spider mite) to LC50 for Tetranychus urticae GSS
[13] = test system: Tetranychus urticae; assay: Resistance ratio of LC50 for bifenazate-susceptible Tetranychus urticae LS-VL (two-spotted spider mite) to LC50 for Tetranychus urticae GSS
[14] = test system: Tetranychus urticae; assay: Toxicity against adult bifenazate-resistant Tetranychus urticae BEL1 (two-spotted spider mite) harboring mitochondrial P262T Cytb fixed mutation in compound pretreated bean leaves assessed as mortality; conditions: BEL-1
[15] = test system: Tetranychus urticae; assay: Toxicity against adult Tetranychus urticae HOL4 (two-spotted spider mite) harboring mitochondrial G126S Cytb mutation in compound pretreated bean leaves assessed as mortality
[16] = test system: Tetranychus urticae; assay: Toxicity against adult bifenazate-resistant Tetranychus urticae BR-VL (two-spotted spider mite) harboring mitochondrial G126S, S141F and D161G Cytb mutation in compound pretreated bean leaves assessed as mortality
[17] = test system: Tetranychus urticae; assay: Toxicity against adult METI-resistant Tetranychus urticae MR-VP (two-spotted spider mite) in compound pretreated bean leaves assessed as mortality
[18] = test system: Tetranychus urticae; assay: Toxicity against adult Tetranychus urticae MR-VL (two-spotted spider mite) in compound pretreated bean leaves assessed as mortality
[19] = test system: Tetranychus urticae; assay: Toxicity against adult Tetranychus urticae WI (two-spotted spider mite) in compound pretreated bean leaves assessed as mortality
[20] = test system: Tetranychus urticae; assay: Toxicity against adult bifenazate-susceptible Tetranychus urticae LS-VL (two-spotted spider mite) in compound pretreated bean leaves assessed as mortality
[21] = test system: Tetranychus urticae; assay: Toxicity against adult Tetranychus urticae GSS (two-spotted spider mite) in compound pretreated bean leaves assessed as mortality
[22] = test system: Tetranychus urticae; assay: Synergism ratio of LC50 for adult Tetranychus urticae GSS (two-spotted spider mite) to LC50 for adult Tetranychus urticae GSS in presence of 2000 mg/L GST inhibitor, DEM application
[23] = test system: Tetranychus urticae; assay: Synergism ratio of LC50 for adult Tetranychus urticae GSS (two-spotted spider mite) to LC50 for adult Tetranychus urticae GSS in presence of 1000 mg/L esterase inhibitor, DEF application
[24] = test system: Tetranychus urticae; assay: Synergism ratio of LC50 for adult Tetranychus urticae GSS (two-spotted spider mite) to LC50 for adult Tetranychus urticae GSS in presence of 2000 mg/L cytochrome P450 monoxygenase inhibitor, PBO
[25] = test system: Tetranychus urticae; assay: Toxicity against adult Tetranychus urticae BEL1 (two-spotted spider mite) in bean leaves assessed as mortality treated 24 hr after 2000 mg/L GST inhibitor, DEM application; conditions: BEL-1, 24 h
[26] = test system: Tetranychus urticae; assay: Toxicity against adult Tetranychus urticae BEL1 (two-spotted spider mite) in bean leaves assessed as mortality treated 24 hr after 2000 mg/L esterase inhibitor, DEF application; conditions: BEL-1, 24 h
[27] = test system: Tetranychus urticae; assay: Toxicity against adult Tetranychus urticae BEL1 (two-spotted spider mite) in bean leaves assessed as mortality treated 24 hr after 2000 mg/L cytochrome P450 monoxygenase inhibitor, PBO application; conditions: BEL-1, 24 h
[28] = test system: Tetranychus urticae; assay: Toxicity against adult Tetranychus urticae BR-VL (two-spotted spider mite) in bean leaves assessed as mortality treated 24 hr after 2000 mg/L GST inhibitor, DEM application
[29] = test system: Tetranychus urticae; assay: Toxicity against adult Tetranychus urticae BR-VL (two-spotted spider mite) in bean leaves assessed as mortality treated 24 hr after 2000 mg/L esterase inhibitor, DEF application
[30] = test system: Tetranychus urticae; assay: Toxicity against adult Tetranychus urticae BR-VL (two-spotted spider mite) in bean leaves assessed as mortality treated 24 hr after 2000 mg/L cytochrome P450 monoxygenase inhibitor, PBO application
[31] = test system: Tetranychus urticae; assay: Toxicity against adult Tetranychus urticae GSS (two-spotted spider mite) in bean leaves assessed as mortality treated 24 hr after 2000 mg/L GST inhibitor, DEM application
[32] = test system: Tetranychus urticae; assay: Toxicity against adult Tetranychus urticae GSS (two-spotted spider mite) in bean leaves assessed as mortality treated 24 hr after 1000 mg/L esterase inhibitor, DEF application
[33] = test system: Tetranychus urticae; assay: Toxicity against adult Tetranychus urticae GSS (two-spotted spider mite) in bean leaves assessed as mortality treated 24 hr after 2000 mg/L cytochrome P450 monoxygenase inhibitor, PBO application
[34] = test system: Tetranychus urticae; assay: Toxicity against female adult Tetranychus urticae (two-spotted spider mite) F1 progeny generated from reciprocal cross between female BEL1 and male GSS in compound pretreated bean leaves assesed as mortality
[35] = test system: Tetranychus urticae; assay: Toxicity against female adult Tetranychus urticae (two-spotted spider mite) F1 progeny generated from reciprocal cross between female GSS and male BEL1 in compound pretreated bean leaves assesed as mortality
[36] = test system: Tetranychus urticae; assay: Toxicity against female adult Tetranychus urticae (two-spotted spider mite) F1 progeny generated from reciprocal cross between female BR-VL and male GSS in compound pretreated bean leaves assesed as mortality
[37] = test system: Tetranychus urticae; assay: Toxicity against female adult Tetranychus urticae (two-spotted spider mite) F1 progeny generated from reciprocal cross between female GSS and male BR-VL in compound pretreated bean leaves assesed as mortality

Work on `COc1ccc(-c2ccccc2)cc1NNC(=O)OC(C)C` [BIFENAZATE] yielded an LC50 [1] of over 10000 µg/mL, an LC50 [2] of 43.4 µg/mL (≈ 144 µM) and an LC50 [3] of over 10000 µg/mL. The RatioLC50 [4] was over 2780, the RatioLC50 [5] was over 2780 and the RatioLC50 [6] was over 2780. The RatioLC50 [7] was 12.1, the RatioLC50 [8] was over 2780 and the RatioLC50 [9] was over 2780. It also gave a RatioLC50 [10] of 2, a RatioLC50 [11] of 2.9 and a RatioLC50 [12] of 2.4. It also gave a RatioLC50 [13] of 0.4, an LC50 [14] of over 10000 µg/mL and an LC50 [15] of over 10000 µg/mL. It also gave an LC50 [16] of over 10000 µg/mL, an LC50 [17] of 7.3 µg/mL (≈ 24.3 µM) and an LC50 [18] of 10.5 µg/mL (≈ 35 µM). The LC50 [19] was 8.7 µg/mL (≈ 29 µM), the LC50 [20] was 1.6 µg/mL (≈ 5.33 µM) and the LC50 [21] was 3.6 µg/mL (≈ 12 µM).
Compound `CO/C=C(/C(=O)OC)c1ccccc1COc1cc(C(F)(F)F)nc(OC(C)C)n1` [FLUACRYPYRIM] has an LC50 [1] of over 10000 µg/mL, an LC50 [2] of over 10000 µg/mL and an LC50 [3] of over 10000 µg/mL. The RatioLC50 [22] was 0.5, the RatioLC50 [23] was 1.6 and the RatioLC50 [24] was 1.7. For the same compound, the LC50 [25] was over 10000 µg/mL, the LC50 [26] was over 10000 µg/mL and the LC50 [27] was over 10000 µg/mL. For the same compound, the LC50 [28] was over 10000 µg/mL, the LC50 [29] was over 10000 µg/mL and the LC50 [30] was over 10000 µg/mL. The LC50 [31] was 12.4 µg/mL (≈ 29.1 µM), the LC50 [32] was 4.2 µg/mL (≈ 9.85 µM) and the LC50 [33] was 3.8 µg/mL (≈ 8.91 µM). The LC50 [34] was over 10000 µg/mL, the LC50 [35] was over 10000 µg/mL and the LC50 [36] was over 10000 µg/mL. The LC50 [37] was over 10000 µg/mL, the RatioLC50 [4] was over 1515 and the RatioLC50 [5] was over 1515. It also gave a RatioLC50 [6] of over 1515, a RatioLC50 [7] of over 1515 and a RatioLC50 [8] of over 1515. For the same compound, the RatioLC50 [9] was over 1515, the RatioLC50 [10] was over 1515 and the RatioLC50 [11] was 4.4. For the same compound, the RatioLC50 [12] was 0.5, the RatioLC50 [13] was over 1515 and the LC50 [14] was over 10000 µg/mL. For the same compound, the LC50 [15] was over 10000 µg/mL, the LC50 [16] was over 10000 µg/mL and the LC50 [17] was over 10000 µg/mL. The LC50 [18] was 28.8 µg/mL (≈ 67.5 µM), the LC50 [19] was 3 µg/mL (≈ 7.04 µM) and the LC50 [20] was over 10000 µg/mL. The LC50 [21] was 6.6 µg/mL (≈ 15.5 µM).
